In PMC12906330 (SLAS discovery : advancing life sciences R & D, 2025) one finds IC50 data, which are given here for three molecules.

Format in all cases: biochemical
For assay [1], the target named is T1, FlgE (flagellar hook protein) (Treponema denticola, UniProt Q9RQB6).
T1 sequence (Q9RQB6 11-454): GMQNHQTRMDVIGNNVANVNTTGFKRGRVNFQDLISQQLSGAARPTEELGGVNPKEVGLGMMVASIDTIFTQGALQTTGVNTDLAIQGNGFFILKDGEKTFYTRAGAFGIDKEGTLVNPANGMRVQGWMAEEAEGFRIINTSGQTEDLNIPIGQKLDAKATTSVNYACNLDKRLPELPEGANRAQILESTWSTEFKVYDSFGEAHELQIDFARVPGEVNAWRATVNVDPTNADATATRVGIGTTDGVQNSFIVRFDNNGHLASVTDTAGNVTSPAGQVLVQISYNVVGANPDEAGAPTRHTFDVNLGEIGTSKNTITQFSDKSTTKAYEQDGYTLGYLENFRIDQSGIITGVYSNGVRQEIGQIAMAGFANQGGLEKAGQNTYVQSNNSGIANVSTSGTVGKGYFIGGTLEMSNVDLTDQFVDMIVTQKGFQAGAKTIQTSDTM
The experiment in a line: ELISA of Lal crosslinking between purified FlgE subunits, dose-response.

Assay [2] deals with T1, FlgE (flagellar hook protein). The assay is described as follows: ELISA of Lal crosslinking between purified FlgE subunits.
Assay [3] shares this target. The assay is described as follows: ELISA of Lal crosslinking between purified FlgE subunits, dose-response. The source holds these as a separate data set.

In turn, `COc1cc(C(=O)NS(=O)(=O)c2ccccc2C)ccc1Cc1cn(C)c2ccc(NC(=O)OC3CCCC3)cc12` [zafirlukast] came in with an IC50 in assay [1] of 92 µM. The molecule `C=CCc1ccc(O)c(-c2ccc(O)c(CC=C)c2)c1` [honokiol] registered an IC50 in assay [2] of 118 µM.

Turning to `Oc1c(Cl)cc(Cl)c(Cl)c1Cc1c(O)c(Cl)cc(Cl)c1Cl` [hexachlorophene], in assay [3], inhibition was half-maximal at 47.7 µM (IC50). This lies in the double-digit micromolar range.

The IC50 is the concentration needed to halve the response being measured.
